Laboratory results as given in patent US5631394A, “Pharmaceutically active ceramide-related compounds” (The Liposome Company, Inc., priority 1995, dated 1997).

What was measured:
Type in all cases: cell-based
MCF7 cells = test: sulforhodamine B cytotoxicity assay, 72 hour drug exposure, MCF7; details: Homo sapiens, MCF7, 72 h
CAKI 1 cells = test: sulforhodamine B cytotoxicity assay, 72 hour drug exposure, CAKI 1; details: Homo sapiens, CAKI-1, 72 h
LEWIS LUNG cells = test: sulforhodamine B cytotoxicity assay, 72 hour drug exposure, Lewis lung; details: Lewis lung carcinoma
MCF7/ADR cells = test: sulforhodamine B cytotoxicity assay, 72 hour drug exposure, MCF7/ADR; details: Homo sapiens, NCI/ADR-RES, 72 h
OVCAR 3 cells = test: sulforhodamine B cytotoxicity assay, 72 hour drug exposure, OVCAR 3; details: Homo sapiens, OVCAR-3, 72 h
A549 cells [1] = test: sulforhodamine B cytotoxicity assay, 72 hour drug exposure, A549; details: Homo sapiens
HT 29 cells = test: sulforhodamine B cytotoxicity assay, 72 hour drug exposure, HT 29; details: Homo sapiens, HT-29, 72 h
SKMEL 28 cells = test: sulforhodamine B cytotoxicity assay, 72 hour drug exposure, SKMEL 28; details: Homo sapiens, SK-MEL-28, 72 h
MCF 7/ADR cells = test: in vitro sensitivity at different drug exposure times, MCF 7/ADR; details: Homo sapiens, NCI/ADR-RES
Experimental: (§1) These studies were performed using a sulforrhodamine B assay (see Monks et al., J. Natl. Cancer Inst. (U.S.) 83:757 ([…])). Compounds were dissolved in ethanol. Results from these studies, presented in the following tables, are expressed as Gl50 values, that is, concentration of a drug (micromolar) required to inhibit growth of fifty percent of the cells.

A549 cells [2] = test: in vitro sensitivity at different drug exposure times, A549; details: Homo sapiens
Experimental: as §1

RPMI 7666 cells = test: sulforhodamine B cytotoxicity assay, 72 hour drug exposure, RPMI 7666
Experimental: as §1

U937 cells = test: sulforhodamine B cytotoxicity assay, 72 hour drug exposure, U937; details: Homo sapiens, U-937
Experimental: as §1

| Compound | GI50 (MCF7 cells) [µM] | GI50 (LEWIS LUNG cells; 72 h) [µM] | GI50 (MCF7/ADR cells) [µM] | GI50 (OVCAR 3 cells) [µM] | GI50 (A549 cells [1]; A549, 72 h) [µM] | GI50 (HT 29 cells) [µM] | GI50 (MCF 7/ADR cells; 1 hour pulse) [µM] | GI50 (MCF 7/ADR cells; 4 hour pulse) [µM] | GI50 (MCF 7/ADR cells; 8 hour pulse) [µM] | GI50 (MCF 7/ADR cells; 24 hour pulse) [µM] | GI50 (MCF 7/ADR cells; 48 hour pulse) [µM] | GI50 (MCF 7/ADR cells; 72 hour continuous exposure) [µM] | GI50 (A549 cells [2]; 1 hour pulse) [µM] | GI50 (A549 cells [2]; 4 hour pulse) [µM] | GI50 (A549 cells [2]; 8 hour pulse) [µM] | GI50 (A549 cells [2]; 24 hour pulse) [µM] | GI50 (A549 cells [2]; 48 hour pulse) [µM] | GI50 (A549 cells [2]; 72 hour continuous exposure) [µM] | other results |
| --- | --- | --- | --- | --- | --- | --- | --- | --- | --- | --- | --- | --- | --- | --- | --- | --- | --- | --- | --- |
| CCCCCCCCCCCCC/C=C/[C@@H](O)[C@H](CO)NCCCCCCCCCC | 5.13 ± 0.01 | 6.71 ± 1.04 | 6.19 ± 0.43 | 12.5 ± 0.85 | 4.99 ± 0.08 | 14.5 ± 0.14 | – | – | – | – | – | – | – | – | – | – | – | – | GI50 (CAKI 1 cells): 6.18 ± 0.01 µM; GI50 (SKMEL 28 cells): 13 µM |
| CCCCCCCCCCCCC/C=C/[C@@H](O)[C@H](CO)NCCCCCCCC | 4.88 ± 0.11 | 5.05 ± 0.02 | 4.88 ± 0.04 | 5.41 ± 0.13 | 4.91 ± 0.01 | 5.72 ± 0.24 | 34.3 ± 4.2 | 14.2 ± 1.2 | 8.9 ± 0.2 | 4.8 ± 0.1 | 4.62 ± 0.1 | 5 ± 0.1 | 31.2 ± 5 | 12.8 ± 1 | 6.7 ± 0.2 | 5 ± 0.1 | 4.8 ± 0.1 | 5 | GI50 (CAKI 1 cells): 4.64 ± 0.07 µM; GI50 (SKMEL 28 cells): 4.96 ± 0.03 µM |
| CCCCCCCCCCCCC/C=C/[C@@H](O[Si](C)(C)C(C)(C)C)[C@H](CO[Si](C)(C)C(C)(C)C)NC(=O)CCCCC [1,3-DiTBDMS C6-Ceramide, 1,3 DiTBDMS C6 Cer] | – | – | – | – | – | – | – | – | – | – | – | – | – | – | – | – | – | – | GI50 (LEWIS LUNG cells): > 200 µM; GI50 (RPMI 7666 cells): > 200 µM; GI50 (A549 cells [1]): > 200 µM; GI50 (U937 cells): 134 ± 28.8 µM |
| CCCCCCCCCCCCC/C=C/[C@@H](OC(C)=O)[C@H](COC(C)=O)NC(=O)CCCCC [1,3-Diacetate C6-Ceramide] | 15.5 ± 0.2 | 4.9 ± 0.5 | 42.9 ± 3.6 | – | 6.1 ± 1.1 | – | – | – | – | – | – | – | – | – | – | – | – | – | – |
| CCCCCCCCCCCCC/C=C/[C@@H](O)[C@H](COC(C)=O)NC(=O)CCCCC [1-Acetate C6-Ceramide, 1-acetate, C6-ceramide] | – | 8.5 ± 0.4 | – | – | 12.7 ± 7.6 | – | > 100 | 59.5 ± 1.4 | 42.7 ± 1.2 | 19.5 ± 0.8 | 15.6 ± 0.9 | 16.7 ± 1.7 | 92.9 ± 1.3 | 44.1 ± 1.3 | 35.3 ± 2.5 | 7.2 ± 0.2 | 4.35 ± 0.1 | 5.1 ± 0.1 | GI50 (RPMI 7666 cells): 9 ± 2 µM; GI50 (U937 cells): 11.3 ± 1 µM |
| CCCCCCCCCCCCC/C=C/C(=O)[C@H](COC(C)=O)NC(=O)CCCCC [1-Acetate-3-one C6-Cer, 1-acetate-3-one C6-Cer] | 6.7 ± 0.1 | 14.5 ± 0.1 | 14.7 ± 0.1 | 15.3 ± 0.1 | 14.4 ± 0.1 | 13.9 ± 0.2 | – | – | – | – | – | – | – | – | – | – | – | – | – |
| CCCCCCCCCCCCC/C=C/[C@@H](O)[C@H](COC(=O)CCC)NC(=O)CCCCC [1-Butyrate C6-Ceramide, 1-butyrate, C6-ceramide] | 17.9 ± 10 | 6.4 ± 2.4 | 37.8 ± 8.06 | – | 6.2 ± 0.4 | – | > 100 | 79.1 ± 5.3 | 44 ± 1.1 | 20.8 ± 1.8 | 17.2 ± 0.1 | 18.5 ± 0.4 | > 100 | 52.9 ± 2.5 | 36.5 ± 0.8 | 8.6 ± 0.6 | 4.7 ± 0.1 | 5.5 ± 0.2 | – |
| CCCCCCCCCCCCC/C=C/[C@@H](O)[C@H](COC(=O)C(C)C)NC(=O)CCCCC [1-Isobutyrate C6-Ceramide, 1-isobutyrate, C6-ceramide] | – | – | 37.8 ± 4.67 | – | 7.9 ± 3.5 | – | > 100 | > 100 | 52.3 ± 1.6 | 22.7 ± 1.1 | 18.7 ± 0.5 | 19.6 ± 1 | > 100 | > 100 | 40.2 ± 2.5 | 8.4 ± 0.7 | 5.2 ± 0.3 | 5.6 ± 0.2 | – |
